Results taken from publication doi:10.1101/2024.08.19.608619, “Discovery of potent SARS-CoV-2 nsp3 macrodomain inhibitors uncovers lack of translation to cellular antiviral response” (bioRxiv, 2024).
Values after ≈ are worked out from the molar mass of the structure shown. Values joined by “and” are separate entries in the source; they are usually repeats but may differ in a detail not shown here. Equal entries are not always repeated. Where two headings read alike, the source gives them in different places.

What was measured:
SARS-CoV-2 nsp3-mac1 = SARS-CoV-2 nsp3-mac1 (Severe acute respiratory syndrome coronavirus 2, UniProt P0DTD1); assay: biochemical
LogD = conditions: pH 7.4
[1] = Hepatic microsomal stability, MLM; type: in vitro ADME
[2] = Hepatic microsomal stability, HLM; type: in vitro ADME, human; conditions: In vitro human liver microsomal stability; for perc_remaining_no_cofactor: no cofactor; for microsomal CLint: liver microsomes
[3] = In vitro kinetic solubility
[4] = Permeability Papp (AB) MDR1/MDCKII; conditions: In vitro MDR1-MDCKII permeability; for perc_recovery_a_to_b_mean: recovery A to B
iPSC pneumocytes = iPSC pneumocytes cytotoxicity; type: cell-based; conditions: protocol iPSC pneumocytes cytotoxicity
Excerpt: Supplement media-1.zip/Cytotoxicity.csv, table | column: cc10; cc50; perc_min_measured; perc_max_measured

HeLa-ACE2 cells = conditions: for perc_max_measured: highest measured response of the dose series; for perc_min_measured: lowest measured response of the dose series
in vitro = conditions: human, hela-ace2 cells, 50.0
[5] = system: SARS-CoV-2, isolate USA-WA1/2020; assay: microbe, parasite or virus in culture; type: cell-based; conditions: HeLa-ACE2 SARS-CoV-2 antiviral effect without P-gp inhibitor; for perc_max_measured: maximum measured response of dose series; for perc_min_measured: minimum measured response of dose series; for EC50: read-out: ec50; for EC90: read-out: ec90
SARS-CoV-2 = assay: Antiviral effect in iPSC-derived pneumocyte system; type: cell-based; conditions: iPSC pneumocytes SARS-CoV-2 antiviral effect
MDR1 = assay: Permeability Papp (AB) MDR1/MDCKII; conditions: dog, MDCK-MDR1, papp_a_to_b_mean, In vitro MDR1-MDCKII permeability, A to B, mean
[6] = HTRF IC50, Figure 4A, racemic mixture
[7] = In vitro mouse liver microsomal stability
[8] = In vitro mouse liver microsomal stability, no cofactor
[9] = In vitro kinetic solubility, ph 7.4
[10] = protocol HeLa-ACE2 cytotoxicity
[11] = IC50, nsp3-mac1 activity, Figures 1-3 and text

With `COc1ccc(C(Nc2ncnc3[nH]ccc23)C(C)C)cc1` (stereo not shown) [ASAP-0000752] as the compound, how does the IC50 (SARS-CoV-2 nsp3-mac1; [6]) read?
Its IC50 is 7.2 µM.

With `O=C(O)C(Nc1ncnc2[nH]ccc12)c1ccc2c(c1)OCCO2` (stereo not shown) [ASAP-0000789] as the compound, how does the IC50 (SARS-CoV-2 nsp3-mac1; [6]) read?
Its IC50 is 8.7 µM.

For `c1nc(NC(c2ccc3c(c2)OCCO3)C2CCC2)c2cc[nH]c2n1` (stereo not shown) [ASAP-0000866], which IC50 (SARS-CoV-2 nsp3-mac1; [6]) is on record?
The IC50 was 5.8 µM.

For `FC(F)(F)C(Nc1ncnc2[nH]ccc12)c1ccc2c(c1)OCCO2` (stereo not shown) [ASAP-0000870], which IC50 (SARS-CoV-2 nsp3-mac1; Figure 4A, racemic mixture, read-out: HTRF IC50) is on record?
The IC50 was 19 µM.

For `CC(C)(C)C(Nc1ncnc2[nH]ccc12)c1ccc2c(c1)OCCO2` (stereo not shown) [ASAP-0008277], which IC50 (SARS-CoV-2 nsp3-mac1; [6]) is on record?
Its IC50 is 1.1 µM.

Which results are given for `CC(C)C(Nc1ncnc2[nH]ccc12)c1ccc2c(c1)NC(=O)CO2` (stereo not shown) [ASAP-0008431]?
logd (LogD; pH 7.4, logd, In vitro LogD): 2.2; clint [1, 7]: 78.0 µL/min/mg; perc_remaining [1, 7]: 26.0% and 27.0%; t_half [1, 7]: 20.9 min and 21.4 min; perc_remaining_no_cofactor [1, 8]: 110.0%; perc_remaining_no_cofactor ([1]; In vitro mouse liver microsomal stability; no cofactor): 93.0%; microsomal CLint ([1]; mouse, liver microsomes, In vitro mouse liver microsomal stability): 80 µL/min/mg; clint [2]: 31.0 µL/min/mg; perc_remaining [2]: 73.0% and 56.0%; t_half [2]: 79.0 min and 54.3 min; perc_remaining_no_cofactor [2]: 105.0% and 92.0%; microsomal CLint ([2]; human): 21 µL/min/mg; solubility_mean [3, 9]: 374 µM (≈ 126 µg/mL); solubility ([3]; pH 7.4, solubility_mean, In vitro kinetic solubility, ph 7.4): 389 µM (≈ 131 µg/mL); IC50 (SARS-CoV-2 nsp3-mac1; [6]): 0.39 µM; perc_recovery_a_to_b_mean ([4]; mean): 86.0% and 98.9%

With `CC(C)[C@@H](Nc1ncnc2[nH]c(-c3cnn(C)n3)cc12)c1ccc2c(c1)OCCO2` [ASAP-0008469] as the compound, how does the perc_max_measured (iPSC pneumocytes; highest measured response of the dose series) read?
The perc_max_measured was 89.766%.

And the perc_min_measured (iPSC pneumocytes; lowest measured response of the dose series)?
The perc_min_measured was 75.657%.

And the CC50 (HeLa-ACE2 cells)?
The CC50 was greater than 20 µM.

And the cc10 (HeLa-ACE2 cells)?
Its cc10 is greater than 20.0 µM.

What about the perc_max_measured (HeLa-ACE2 cells; [10]) of the same compound?
The perc_max_measured was 104.412% and 106.04%.

What about the perc_min_measured (HeLa-ACE2 cells; [10]) of the same compound?
The perc_min_measured was 76.407% and 89.613%.

And the CC50 at 24 h (in vitro)?
The CC50 at 24 h was greater than 20 µM.

And the perc_max_measured [5]?
The perc_max_measured was 101.658% and 92.76%.

And the perc_min_measured [5]?
Its perc_min_measured is 24.481% and 27.109%.

And the EC50 [5]?
The EC50 was 5.33 µM and 6.65 µM.

And the EC90 [5]?
The EC90 was greater than 20 µM.

And the EC50 (SARS-CoV-2)?
Its EC50 is 13.3 µM.

What about the EC90 (SARS-CoV-2) of the same compound?
The EC90 was 25.3 µM.

And the perc_max_measured (SARS-CoV-2; maximum measured response of dose series)?
The perc_max_measured was 157.709%.

What about the perc_min_measured (SARS-CoV-2; minimum measured response of dose series) of the same compound?
Its perc_min_measured is 4.934%.

For `CNC(=O)Cn1cc(-c2cc3c(NC(c4ccc5c(c4)OCCO5)C(C)C)ncnc3[nH]2)cn1` (stereo not shown) [ASAP-0008565], which logd (LogD) is on record?
The logd was 2.9.

And the perc_remaining [1, 7]?
Its perc_remaining is 46.0%.

What about the t_half [1, 7] of the same compound?
Its t_half is 35.7 min.

What about the perc_remaining_no_cofactor [1, 8] of the same compound?
Its perc_remaining_no_cofactor is 90.0%.

What about the microsomal CLint ([1]; liver microsomes; In vitro mouse liver microsomal stability) of the same compound?
The microsomal CLint was 47 µL/min/mg.

What about the perc_remaining [2] of the same compound?
The perc_remaining was 14.0%.

What about the t_half [2] of the same compound?
Its t_half is 14.0 min.

What about the perc_remaining_no_cofactor [2] of the same compound?
Its perc_remaining_no_cofactor is 92.0%.

And the microsomal CLint [2]?
The microsomal CLint was 119 µL/min/mg.

And the solubility ([3]; pH 7.4)?
The solubility was 289 µM (≈ 133 µg/mL).

What about the IC50 (SARS-CoV-2 nsp3-mac1; [11]) of the same compound?
The IC50 was 0.25 µM.

And the “increase in potency relative to the starting point” value (SARS-CoV-2 nsp3-mac1; relative to ASAP-000450)?
The value was 10 x.

And the Papp A→B (MDR1)?
The Papp A→B was 1.94 ×10⁻⁶ cm/s.

What about the perc_recovery_a_to_b_mean ([4]; mean) of the same compound?
The perc_recovery_a_to_b_mean was 94.1%.

With `CC(C)C(Nc1ncnc2[nH]c(-c3cnn(C)c3)cc12)c1ccc2c(c1)OCCO2` (stereo not shown) [ASAP-0008596] as the compound, how does the IC50 (SARS-CoV-2 nsp3-mac1; [11]) read?
The IC50 was 0.56 µM.

For `CC(C)C(Nc1ncnc2[nH]c(C(=O)NC3CCN(C)C3)cc12)c1ccc2c(c1)OCCO2` (stereo not shown) [ASAP-0010747], which IC50 (SARS-CoV-2 nsp3-mac1; [6]) is on record?
The IC50 was 0.46 µM.

With `CNC(=O)c1cccc(-c2cc3c(N[C@@H](c4ccc5c(c4)S(=O)(=O)CCC5)C(C)C)ncnc3[nH]2)c1` [ASAP-0012344] as the compound, how does the CC50 (HeLa-ACE2 cells; [10]) read?
Its CC50 is greater than 20 µM.

What about the cc10 (HeLa-ACE2 cells; [10]) of the same compound?
The cc10 was greater than 20.0 µM.

What about the perc_max_measured (HeLa-ACE2 cells; [10]) of the same compound?
The perc_max_measured was 109.077%.

What about the perc_min_measured (HeLa-ACE2 cells; [10]) of the same compound?
The perc_min_measured was 84.376%.

What about the logd (LogD; In vitro LogD) of the same compound?
Its logd is 3.7.

What about the clint [1, 7] of the same compound?
The clint was 882.0 µL/min/mg.

And the perc_remaining [1, 7]?
Its perc_remaining is 1.0%.

What about the t_half [1, 7] of the same compound?
Its t_half is 1.9 min.

And the perc_remaining_no_cofactor [1, 8]?
The perc_remaining_no_cofactor was 101.0%.

What about the CC50 at 24 h (in vitro) of the same compound?
Its CC50 at 24 h is greater than 20 µM.

What about the clint [2] of the same compound?
Its clint is 455.0 µL/min/mg.

What about the perc_remaining [2] of the same compound?
The perc_remaining was 0.0%.

What about the t_half [2] of the same compound?
Its t_half is 3.7 min.

What about the perc_remaining_no_cofactor [2] of the same compound?
Its perc_remaining_no_cofactor is 93.0%.

And the solubility_mean [3, 9]?
Its solubility_mean is 15 µM (≈ 7.55 µg/mL).

And the perc_max_measured [5]?
The perc_max_measured was 108.746%.

What about the perc_min_measured [5] of the same compound?
Its perc_min_measured is 56.34%.

And the EC50 [5]?
Its EC50 is greater than 20 µM.

What about the EC90 [5] of the same compound?
The EC90 was greater than 20 µM.

And the papp_a_to_b_mean ([4]; A to B, no inhibitor)?
Its papp_a_to_b_mean is 0.627 ×10⁻⁶ cm/s.

And the perc_recovery_a_to_b_mean ([4]; no inhibitor)?
The perc_recovery_a_to_b_mean was 67.1%.
